From US8785488B2 (Exelixis Patent Company LLC, priority 2009, dated 2014)

biological target: T1, human TGR5 (h-TGR5) (Homo sapiens, UniProt Q8TDU6); assay: TGR5/CRE-Luciferiase Assay (HEK 293 hTGR5/CRE-Luc cells); type: cell-based; settings: h-TGR5 CRE-Luc EC50, Table 1; read-out: CRE-Luc (EC50)
T1 construct: expressed in transfected cells
T1 sequence (Q8TDU6 1-330): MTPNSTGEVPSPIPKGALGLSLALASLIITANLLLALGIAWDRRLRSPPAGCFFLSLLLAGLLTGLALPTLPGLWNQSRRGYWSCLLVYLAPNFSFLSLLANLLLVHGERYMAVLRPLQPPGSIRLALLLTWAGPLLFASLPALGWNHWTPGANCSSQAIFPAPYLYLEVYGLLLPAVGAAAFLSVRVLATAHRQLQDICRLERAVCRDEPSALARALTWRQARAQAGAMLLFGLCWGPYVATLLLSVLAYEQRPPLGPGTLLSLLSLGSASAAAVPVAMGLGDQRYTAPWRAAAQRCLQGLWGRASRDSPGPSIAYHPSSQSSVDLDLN
Procedure, shortened: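 HEK293 cells stably carrying hTGR5 and a CRE-luciferase reporter were exposed to serially diluted compounds (diluted in DMEM with 5% DMSO) for 6 h. Cells were then lysed in luciferase buffer, luminescence was read, and EC50 values were derived from dose-response curves.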

Row | Compound | EC50 [nM]
1 | CC(C)(c1ccc(Cl)c(Cl)c1)c1cnc(CCc2c(F)cc(C(=O)O)cc2Cl)n1-c1ccc(F)cc1 [3-chloro-4-(2-{5-[1-(3,4-dichlorophenyl)-1-methylethyl]-1-(4-fluorophenyl)-1H-imidazol-2-yl}ethyl)-5-fluorobenzoic acid] | 100 to 1000
2 | CCN(CC)CCOc1cc(-n2c(C(C)(C)c3ccc(Cl)c(Cl)c3)cnc2SCc2c(F)cc(C(=O)O)cc2Cl)ccc1F [3-chloro-4-[({5-[1-(3,4-dichlorophenyl)-1-methylethyl]-1-(3-{[2-(diethylamino)ethyl]oxy}-4-fluorophenyl)-1H-imidazol-2-yl}thio)methyl]-5-fluorobenzoic acid] | 100 to 1000
3 | CC(C)(c1ccc(Cl)c(Cl)c1)c1cnc(COc2ccc(C(=O)O)cc2Cl)n1-c1ccc(F)cc1 [3-chloro-4-[({5-[1-(3,4-dichlorophenyl)-1-methylethyl]-1-(4-fluorophenyl)-1H-imidazol-2-yl}methyl)oxy]benzoic acid] | 1000 to 10000
4 | CC(C)(c1ccc(Cl)c(Cl)c1)c1cnc(SCc2ccc(C(=N)N)cc2Cl)n1-c1ccc(F)cc1 [3-chloro-4-[({5-[1-(3,4-dichlorophenyl)-1-methylethyl]-1-(4-fluorophenyl)-1H-imidazol-2-yl}thio)methyl]benzenecarboximidamide] | 100 to 1000
5 | CC(C)(c1ccc(Cl)c(Cl)c1)c1cnc(SCc2ccc(C#N)cc2Cl)n1-c1ccc(F)cc1 [3-chloro-4-[({5-[1-(3,4-dichlorophenyl)-1-methylethyl]-1-(4-fluorophenyl)-1H-imidazol-2-yl}thio)methyl]benzonitrile] | 100 to 1000
6 | CC(C)(c1ccc(F)c(F)c1)c1cnc(SCc2c(F)cc(C(=O)O)cc2Cl)n1-c1ccc(F)cc1 [3-chloro-4-[({5-[1-(3,4-difluorophenyl)-1-methylethyl]-1-(4-fluorophenyl)-1H-imidazol-2-yl}thio)methyl]-5-fluorobenzoic acid] | 100 to 1000

More lines, now with the values ahead:

Row | EC50 [nM] | Compound
7 | 1000 to 10000 | CC(C)(c1ccc(Cl)c(Cl)c1)c1cnc(CCc2ccc(S(=O)(=O)NC(=O)NN3CCCC3)cc2Cl)n1-c1ccc(F)cc1 [3-chloro-4-(2-{5-[1-(3,4-dichlorophenyl)-1-methylethyl]-1-(4-fluorophenyl)-1H-imidazol-2-yl}ethyl)-N-[(pyrrolidin-1-ylamino)carbonyl]benzenesulfonamide]
8 | 1000 to 10000 | CC(C)(c1ccc(S(C)(=O)=O)cc1)c1cnc(SCc2ccc(S(=O)(=O)NC(=O)NN3CCCC3)cc2Cl)n1-c1ccc(F)cc1 [3-chloro-4-({[1-(4-fluorophenyl)-5-{1-methyl-1-[4-(methylsulfonyl)phenyl]ethyl}-1H-imidazol-2-yl]thio}methyl)-N-[(pyrrolidin-1-ylamino)carbonyl]benzenesulfonamide]
9 | 1000 to 10000 | CC(C)(c1ccc(S(C)(=O)=O)cc1)c1cnc(SCc2ccc(S(=O)(=O)NC(=O)NN3CCCC3)cc2Cl)n1-c1ccc(F)cn1 [3-chloro-4-({[1-(5-fluoropyridin-2-yl)-5-{1-methyl-1-[4-(methylsulfonyl)phenyl]ethyl}-1H-imidazol-2-yl]thio}methyl)-N-[(pyrrolidin-1-ylamino)carbonyl]benzenesulfonamide]
10 | < 100 | COc1c(Cl)cc(C(C)(C)c2cnc(SCc3ccc(S(N)(=O)=O)cc3Cl)n2-c2ccc(F)cc2)cc1Cl [3-chloro-4-({[5-{1-[3,5-dichloro-4-(methyloxy)phenyl]-1-methylethyl}-1-(4-fluorophenyl)-1H-imidazol-2-yl]thio}methyl)benzenesulfonamide]
11 | 1000 to 10000 | CC(C)(c1ccc(F)cc1)c1cnc(SCc2ccc(S(=O)(=O)NC(=O)NN3CCCC3)cc2Cl)n1-c1ccc(F)c(F)c1 [3-chloro-4-[({1-(3,4-difluorophenyl)-5-[1-(4-fluorophenyl)-1-methylethyl]-1H-imidazol-2-yl}thio)methyl]-N-[(pyrrolidin-1-ylamino)carbonyl]benzenesulfonamide]
12 | 100 to 1000 | CC(C)(c1ccc(Cl)c(Cl)c1)c1cnc(SCc2ccc(C(N)=O)cc2Cl)n1-c1ccc(F)cc1 [3-chloro-4-[({5-[1-(3,4-dichlorophenyl)-1-methylethyl]-1-(4-fluorophenyl)-1H-imidazol-2-yl}thio)methyl]benzamide]
